US8697716B2, “Method of inhibiting C-KIT kinase” (Janssen Pharmaceutica NV, priority 2006, dated 2014)
Structures can show the parent of a compound that is named as a salt.

Assays:
[1] = biological target: isolated kinase domain of the human c-kit receptor (Homo sapiens (Human), UniProt P10721); test: c-Kit Fluorescence Polarization Kinase Assay; format: biochemical; conditions: 1 nM c-kit, 50 uM ATP, 45 minutes at room temperature; uncertainty +10%
Procedure: c-Kit Fluorescence Polarization Kinase Assay
The c-kit assay utilized the fluorescein-labeled phosphopeptide and the anti-phosphotyrosine antibody included in the Panvera Phospho-Tyrosine Kinase Kit (Green) supplied by Invitrogen. When c-kit phosphorylated the poly Glu4Tyr, the fluorescein-labeled phosphopeptide was displaced from the anti-phosphotyrosine antibody by the phosphorylated poly Glu4Tyr, thus decreasing the FP value. The c-kit kinase reaction was incubated at room temperature for 45 minutes under the following conditions: 1 nM c-kit (ProQinase, lot SP005), 100 ug/mL poly Glu4Tyr, 50 uM ATP, 5 mM MgCl2, 1 mM DTT, 0.01% Tween-20, 1% DMSO or compound in […], pH 7.5. The kinase reaction was stopped with the addition of EDTA. The fluorescein-labeled phosphopeptide and the anti-phosphotyrosine antibody were added and incubated for 30 minutes at room temperature and fluorescence polarization was read. Data points were an average of triplicate samples. Inhibition and IC50 data analysis were done with GraphPad Prism using a non-linear regression fit with a multiparamater, sigmoidal dose-response (variable slope) equation.

BR-1 cells = test: c-Kit BR-1 Assay (inhibition of BR-1 cell proliferation); format: cell-based; conditions: Canis lupus familiaris; BR-1 dog mastocytoma line, constitutive-active mutant KIT; 72 hours, Cell TiterGlo
Procedure: Immediately following plating (time zero), 6 wells containing cells are treated with 100 μl of Promega Cell TiterGlo reagent and incubated 10 min with shaking. The intensity of the Cell TiterGlo signal (1 sec/well) is determined using a luminometer. The remaining cells are cultured 72 hours (37° C. and 5% CO2). Following the 72-hour growth interval, 100 μl of Promega Cell TiterGlo reagent is added to each well. The plates are incubated an additional 10 minutes with shaking and the intensity of the Cell TiterGlo signal (1 sec/well) is determined using a luminometer. Cell proliferation is defined by the difference between the time zero and time 72 hour signals.

isolated kinase domain of the human c-kit receptor, sequence (P10721 589-937): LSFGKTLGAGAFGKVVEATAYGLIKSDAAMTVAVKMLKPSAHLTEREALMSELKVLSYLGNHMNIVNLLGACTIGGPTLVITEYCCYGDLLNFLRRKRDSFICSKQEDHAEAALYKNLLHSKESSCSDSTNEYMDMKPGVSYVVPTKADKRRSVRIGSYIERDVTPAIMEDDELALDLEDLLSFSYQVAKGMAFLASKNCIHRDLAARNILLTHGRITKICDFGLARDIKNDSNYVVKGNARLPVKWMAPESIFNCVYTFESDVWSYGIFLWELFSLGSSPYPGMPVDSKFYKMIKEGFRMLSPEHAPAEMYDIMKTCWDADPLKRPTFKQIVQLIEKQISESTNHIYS

Row | SMILES | IC50 [1] [nM] | IC50 (BR-1 cells) [nM]
1 | N#Cc1c[nH]c(C(=O)Nc2ccc(C3CCN(C(=O)CCN4CCOCC4)CC3)cc2C2=CCCCC2)n1 [Compound 8, 4-Cyano-1H-imidazole-2-carboxylic acid{2-cyclohex-1-enyl-4-[1-(3-morpholin-4-yl-propionyl)-piperidin-4-yl]-phenyl}-amide] | 42 | 
2 | CN1CCN(c2ccc(NC(=O)c3ccc(C#N)o3)c(C3=CCCCC3)c2)CC1 [Compound 11, 5-Cyano-furan-2-carboxylic acid [2-cyclohex-1-enyl-4-(4-methyl-piperazin-1-yl)-phenyl]-amide] | 150 | 
3 | CN1CCN(c2ccc(NC(=O)c3ccc(C#N)o3)c(C3=CCOCC3)c2)CC1 [Compound 12] | > 250 | 
4 | N#Cc1c[nH]c(C(=O)Nc2ccc(C3CCNCC3)cc2C2=CCCCC2)c1 [Compound 13, 4-Cyano-1H-pyrrole-2-carboxylic acid (2-cyclohex-1-enyl-4-piperidin-4-yl-phenyl)-amide trifluoroacetic acid salt] | 260 | 
5 | N#Cc1c[nH]c(C(=O)Nc2ccc(C3CCN(Cc4ccccn4)CC3)cc2C2=CCCCC2)n1 [Compound 21, 4-Cyano-1H-imidazole-2-carboxylic acid [2-cyclohex-1-enyl-4-(1-pyridin-2-ylmethyl-piperidin-4-yl)-phenyl]-amide trifluoroacetic acid salt] | 50 | 
6 | N#Cc1c[nH]c(C(=O)Nc2ccc(C3CCS(=O)(=O)CC3)cc2C2=CCCCC2)n1 [Compound 35, 4-Cyano-1H-imidazole-2-carboxylic acid [2-cyclohex-1-enyl-4-(1,1-dioxo-hexahydro-1λ^6-thiopyran-4-yl)-phenyl]-amide] | 73 | 
7 | CN(C)CC(=O)N1CCC(c2ccc(NC(=O)c3nc(C#N)c[nH]3)c(C3=CCCCC3)c2)CC1 [Compound 38, 4-Cyano-1H-imidazole-2-carboxylic acid{2-cyclohex-1-enyl-4-[1-(2-dimethylamino-acetyl)-piperidin-4-yl]-phenyl}-amide] |  | 90
8 | CS(=O)(=O)CCN1CCC(c2ccc(NC(=O)c3nc(C#N)c[nH]3)c(C3=CCCCC3)c2)CC1 [Compound 40, 4-Cyano-1H-imidazole-2-carboxylic acid{2-cyclohex-1-enyl-4-[1-(2-methanesulfonyl-ethyl)-piperidin-4-yl]-phenyl}-amide] |  | 250
9 | C[C@@H]1CC(c2ccc(NC(=O)c3ncc(C#N)[nH]3)c(C3=CCCCC3)c2)C[C@H](C)N1 (stereo partly drawn) [Compound 51a, 5-Cyano-1H-imidazole-2-carboxylic acid [2-cyclohex-1-enyl-4-(cis-2,6-dimethyl-piperidin-4-yl)-phenyl]-amide bis trifluoroacetic acid salt] | 4.3 | 
10 | N#Cc1cnc(C(=O)Nc2ccc(C3CCN(C(=O)[C@H](O)CO)CC3)cc2C2=CCCCC2)[nH]1 [Compound 52, 5-Cyano-1H-imidazole-2-carboxylic acid{2-cyclohex-1-enyl-4-[1-(R)-(+)-(2,3-dihydroxy-propionyl)-piperidin-4-yl]-phenyl}-amide] | 8 | 
11 | CC1(C)CC=C(c2nc(C3CCNCC3)ccc2NC(=O)c2nc(C#N)c[nH]2)CC1 [Compound 54, 4-Cyano-1H-imidazole-2-carboxylic acid [6-(4,4-dimethyl-cyclohex-1-enyl)-1′,2′,3′,4′,5′,6′-hexahydro-[2,4′]bipyridinyl-5-yl]-amide trifluoroacetic acid salt] |  | 900
12 | CN(C)CC(=O)N1CCC(c2ccc(NC(=O)c3nc(C#N)c[nH]3)c(C3=CCC(C)(C)CC3)n2)CC1 [Compound 55, 4-Cyano-1H-imidazole-2-carboxylic acid [1′-(2-dimethylamino-acetyl)-6-(4,4-dimethyl-cyclohex-1-enyl)-1′,2′,3′,4′,5′,6′-hexahydro-[2,4′]bipyridinyl-5-yl]-amide trifluoroacetic acid salt] | 12 | 250
13 | CC1(C)CC=C(c2nc(C3CCN(CCS(C)(=O)=O)CC3)ccc2NC(=O)c2nc(C#N)c[nH]2)CC1 [Compound 56, 4-Cyano-1H-imidazole-2-carboxylic acid [6-(4,4-dimethyl-cyclohex-1-enyl)-1′-(2-methanesulfonyl-ethyl)-1′,2′,3′,4′,5′,6′-hexhydro-[2,4′]bipyridinyl-5-yl]-amide trifluoroacetic acid salt] | 39 | 500
14 | CS(=O)(=O)CCN1CCC(c2ccc(NC(=O)c3ncc(C#N)[nH]3)c(C3=CCCCC3)n2)CC1 [Compound 58, 5-Cyano-1H-imidazole-2-carboxylic acid [6-cyclohex-1-enyl-1′-(2-methanesulfonyl-ethyl)-1′,2′,3′,4′,5′,6′-hexahydro-[2,4′]bipyridinyl-5-yl]-amide] |  | 1000

Now from value to molecule, other results behind:

Row | IC50 [1] [nM] | SMILES | IC50 (BR-1 cells) [nM]
15 | 71 | N#Cc1c[nH]c(C(=O)Nc2ccc(C3CCNCC3)cc2C2=CCCCC2)n1 [Compound 14, 4-Cyano-1H-imidazole-2-carboxylic acid (2-cyclohex-1-enyl-4-piperidin-4-yl-phenyl)-amide trifluoroacetic acid salt] | 
16 | 57 | CC(=O)N1CCC(c2ccc(NC(=O)c3nc(C#N)c[nH]3)c(C3=CCCCC3)c2)CC1 [Compound 16, 4-Cyano-1H-imidazole-2-carboxylic acid [4-(1-acetyl-piperidin-4-yl)-2-cyclohex-1-enyl-phenyl]-amide] | 
17 | 26 | N#Cc1c[nH]c(C(=O)Nc2ccc(C3CCN(CCO)CC3)cc2C2=CCCCC2)n1 [Compound 26, 4-Cyano-1H-imidazole-2-carboxylic acid{2-cyclohex-1-enyl-4-[1-(2-hydroxy-ethyl)-piperidin-4-yl]-phenyl}-amide trifluoroacetic acid salt] | 
18 | 80 | N#CCCN1CCC(c2ccc(NC(=O)c3nc(C#N)c[nH]3)c(C3=CCCCC3)c2)CC1 [Compound 27, 4-Cyano-1H-imidazole-2-carboxylic acid {4-[1-(2-cyano-ethyl)-piperidin-4-yl]-2-cyclohex-1-enyl-phenyl}-amide trifluoroacetic acid salt] | 
19 | > 250 | CC(=O)N1CCC(c2ccc(NC(=O)c3nc(C#N)c[nH]3)c(C3=CCS(=O)(=O)CC3)c2)CC1 [Compound 37, 4-Cyano-1H-imidazole-2-carboxylic acid [4-(1-acetyl-piperidin-4-yl)-2-(1,1-dioxo-1,2,3,6-tetrahydro-1λ^6-thiopyran-4-yl)-phenyl]-amide] | 
20 | 35 | N#Cc1c[nH]c(C(=O)Nc2ccc(C3CCN(C(=O)c4cc[n+]([O-])cc4)CC3)cc2C2=CCCCC2)n1 [Compound 41, 4-Cyano-1H-imidazole-2-carboxylic acid {2-cyclohex-1-enyl-4-[1-(1-oxy-pyridine-4-carbonyl)-piperidin-4-yl]-phenyl}-amide] | 
21 | 100 | N#Cc1c[nH]c(C(=O)Nc2ccc(C3CCN(CC(=O)O)CC3)cc2C2=CCCCC2)n1 [Compound 47, (4-{4-[(4-Cyano-1H-imidazole-2-carbonyl)-amino]-3-cyclohex-1-enyl-phenyl}-piperidin-1-yl)-acetic acid trifluoroacetic acid salt] | 
22 | 5 | CC(C)(N)CC(=O)N1CCC(c2ccc(NC(=O)c3nc(C#N)c[nH]3)c(C3=CCCCC3)c2)CC1 [Compound 48, 4-Cyano-1H-imidazole-2-carboxylic acid {4-[1-(3-amino-3-methyl-butyryl)-piperidin-4-yl]-2-cyclohex-1-enyl-phenyl}-amide trifluoroacetic acid salt] | 
